Results: US20260356814A1, “INDOLINE DERIVATIVES AS SEROTONERGIC AGENTS USEFUL FOR THE TREATMENT OF DISORDERS RELATED THERETO” (MINDSET PHARMA INC., priority 2022, published 2026)

Biological target: T1, human 5-HT2A (h5-HT2A) receptor (Homo sapiens, UniProt P28223)
T1 construct: expressed in transfected cells; host or cells: HEK293 (HTR2A&Ga15-HEK293, tetracycline-induced)
Assay: FLIPR assay: human 5-HT2A (agonist mode)
Assay type: cell-based
Details: for RFU@10 μM: @10 μM (head), footnote: curve fitting with activation (%) @ 10 mM with RFU, RFU=Fmax−Fmin; for EC50: FLIPR calcium, agonist mode, HTR2A&Gα15-HEK293 cells, ND: not detected
Description: Assessment of the effect of exemplary compounds of Formula I targeting on human 5-HT2A (h5-HT2A) receptor under agonist mode.
HTR2A&Ga15-HEK293 cells were cultured in DMEM medium containing 10% dialyzed FBS and 1x penicillin-streptomycin, 100 μg/mL Hygromycin B and 300 μg/mL G418. The cells were passaged about three times a week, maintained between ~30% to ~90% confluence.
• 1. The cell culture medium (DMEM medium containing 10% dialyzed FBS and 1× penicillin-streptomycin, 100 μg/mL Hygromycin B and 300 μg/mL G418), TrypLE™ Express and DPBS to R.T. was warmed in advance. • 2. For induction, 1 μg/ml tetracycline (final concentration) was added to cell culture medium and incubated for 48 hours prior to seeding cells into plate at 37° C., 5% (v/v) CO2. The cell culture medium was removed from flask. Cells were washed with DPBS. • 3. 2 mL TrypLE™ Express was added to the flask, mixed well by gentle shaking and cells were incubated at 37° C. for a few minutes. • The cells were checked for morphological change under microscope, the digestion was stopped by adding 4 mL cell culture medium to the flask when most of cells turned to round. • 5. The cell suspension was transferred into a 15 mL centrifuge tube, and then centrifuged at 1,200 rpm for 5 minutes. • 6. The supernatant was removed. The cell pellet was resuspended with 2 mL cell culture medium. • 7. The cell density was counted using cell counter. Only cells with >85% viability were used for the assay. • 8. Cells were diluted to 6.67×10^5/mL with cell culture medium. • 9. 30 μL/well cell suspensions added into a 384-well cell plate (The cell density was 20,000 cells/well). • 10. The cell plate was incubated overnight at 37° C., 5% (v/v) CO2. 2.3 Cell handling • 1. On the day of experiments, culture medium was removed from the cell plate. • 2. 10 μL of assay buffer (20 mM HEPES, in 1×HBSS, pH 7.4) was added to each well of the cell plate. • 3. 2×dye solution was prepared following the manual of the FLIPR® Calcium 6 Assay Kit: • i. The dye was diluted with assay buffer. • ii. Probenecid was added to the final concentration of 5 mM. • iii. Vortexed vigorously for 1-2 minutes. • 4. 10 μL of 2× dye solution was added to each well of the cell plate • 5. The cell plate was placed on plate shaker, followed by shaking at 600 rpm for 2 minutes. • 6. The plate was incubated at 37° C. for 2 hours followed by an additional 15-minute incubation at 25° C. 2.4 Prepare 3×compound • 1. Serotonin HCl was prepared to the concentration of 10 mM with DMSO. • 2. The test compounds were prepared to the concentration of 10 mM with DMSO. • 3. The compounds were added to a 384-well compound source plate. • 4. 3-folds serial dilutions were performed with DMSO. • 5. 90 nL/well of serial diluted compounds was transferred from source plate to a 384-well compound plate by using an Echo. • 6. 30 μL/well of assay buffer (20 mM HEPES in 1x HBSS, pH 7.4) was added to the compound plate. • 7. The plate was mixed on-plate shaker for 2 minutes.
• 1. After the cells were incubated with dye solution, the cell plate, compound plate containing 3×compounds and FLIPR tips were placed into FLIPR. • 2. 10 μL of 3×compounds transferred from the compound plate to the cell plate by FLIPR. • 3. The plate was read for 160 sec with 1 sec interval and the data of agonist mode was obtained.
• 1. The normalized fluorescence reading (RFU) was calculated as shown below, wherein Fmax and Fmin stand for maximum and minimum of calcium signal during defined time window:
RFU=Fmax−Fmin • 2. EC50 by fitting RFU against log of compound concentrations with Hill equation was calculated using XLfit.
The following procedure can also be followed: • 1. Cells are cultured in cell culture medium (DMEM containing 10% FBS, 1× penicillin-streptomycin 300 μg/ml G418 and 100 μg/ml hygromycin B) at 37° C., 5% (v/V) CO2. • 2. One day before the assays, the cells are detached using TrypLE™ Express and cells are counted using cell counter.

T1 sequence (P28223 whole entry): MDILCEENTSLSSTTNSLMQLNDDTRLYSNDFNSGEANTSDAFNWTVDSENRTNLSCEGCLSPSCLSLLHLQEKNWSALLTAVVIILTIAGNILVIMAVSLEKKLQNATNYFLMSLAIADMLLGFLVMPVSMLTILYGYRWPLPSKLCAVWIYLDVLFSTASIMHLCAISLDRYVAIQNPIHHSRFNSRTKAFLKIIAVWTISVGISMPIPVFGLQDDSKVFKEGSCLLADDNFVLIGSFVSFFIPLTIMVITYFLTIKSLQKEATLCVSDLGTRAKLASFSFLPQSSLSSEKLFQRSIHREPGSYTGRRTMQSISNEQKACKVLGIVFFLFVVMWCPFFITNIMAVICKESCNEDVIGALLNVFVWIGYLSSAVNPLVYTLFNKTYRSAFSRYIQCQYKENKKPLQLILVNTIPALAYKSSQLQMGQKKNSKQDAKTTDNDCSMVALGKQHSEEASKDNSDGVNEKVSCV

| SMILES | RFU@10 μM | EC50 |
| --- | --- | --- |
| [2H]C([2H])([2H])N1CCC[C@@H]1C([2H])([2H])N1CCc2ccc(OC)cc21 [(R)-I-57, (R)-6-Methoxy-1-((1-(methyl-d3)pyrrolidin-2-yl)methyl-d2) indoline] | 749 RFU | 0.422 µM |
| COc1ccc2c(c1)N(C[C@H]1CCCN1)CC2 [(R)-I-59, (R)-6-Methoxy-1-(pyrrolidin-2-ylmethyl) indoline] | 801 RFU | 1.21 µM |
| [2H]C([2H])([2H])N1CCC[C@@H]1C([2H])([2H])N1CCc2ccccc21 [(R)-I-1, (R)-1-((1-(Methyl-d3)pyrrolidin-2-yl)methyl-d2) indoline] | 386 RFU | 3.55 µM |
| COc1ccc2c(c1)N(C[C@H]1CCCN1C)CC2 [(R)-I-58, (R)-6-Methoxy-1-((1-methylpyrrolidin-2-yl)methyl) indoline] | 796 RFU | 0.322 µM |
| COc1cc2c(cc1OC)N(C[C@H]1CCCN1C)CC2 [(R)-I-34, (R)-5,6-dimethoxy-1-((1-methylpyrrolidin-2-yl)methyl) indoline] | 268 RFU |  |
| [2H]C([2H])([2H])Oc1ccc2c(c1)N(C([2H])([2H])[C@H]1CCCN1C([2H])([2H])[2H])CC2 [(R)-I-28, (R)-6-(Methoxy-d3)-1-((1-(methyl-d3)pyrrolidin-2-yl)methyl-d2) indoline] | 3744 RFU | 1.09 µM |
| COc1cccc2c1CCN2C[C@H]1CCCN1C [(R)-I-47, (R)-4-Methoxy-1-((1-methylpyrrolidin-2-yl)methyl) indoline] | 174 RFU |  |
| [2H]C([2H])([2H])N(CCN1CCc2ccccc21)C([2H])([2H])[2H] [Compound I-71, 2-(Indolin-1-yl)-N,N-bis(methyl-d3) ethan-1-amine] | 280 RFU |  |
| [2H]C([2H])([2H])N(CCN1CCc2ccc(OC)cc21)C([2H])([2H])[2H] [Compound I-70, 2-(6-Methoxyindolin-1-yl)-N, N-bis(methyl-d3) ethan-1-amine] | 303 RFU |  |
| COc1cccc2c1N(C[C@H]1CCCN1C)CC2 [(R)-I-46, (R)-7-Methoxy-1-((1-methylpyrrolidin-2-yl)methyl) indoline] | 487 RFU | 1.14 µM |
